Where two headings read alike, the source gives them in different places.
Key:
[1] = biological target: T1, purified human BChE (Homo sapiens, UniProt P06276); assay: biochemical; assay type: biochemical
T1 construct: possibly also a gift of Dr Florian Nachon (the sentence is ambiguous)
Procedure, shortened: (§1)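 Modified Ellman assay with acetylthiocholine and DTNB in 0.1 M sodium phosphate pH 7.4 (enzymes diluted with 0.1% BSA), ≤0.2% DMSO, 25 °C. At least three inhibitor concentrations per substrate level; Ki,app from Hunter–Downs equation, Ki from y-intercept and inhibition type from Ki,app vs [S].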

[2] = biological target: T2, recombinant human AChE (Homo sapiens, UniProt P22303); assay: biochemical; assay type: biochemical; conditions: for IS: IS = Ki(BChE)/Ki(AChE), IS > 1 selective to AChE
T2 construct: gift of Dr Florian Nachon (Armed Forces Biomedical Research Institute, Brétigny-sur-Orge, France)
Procedure, shortened: as §1

[3] = Reverse-phase thin-layer chromatographic lipophilicity (RF, RM0); assay type: physicochemical; conditions: for RM0: intercept of RM = RM0 + bC; for b: slope of RM = RM0 + bC; for RF, Methanol/Water/Hydrochloric acid (conc.), mobile phase I: I = 90%MeOH/5%H2O/5%HCl; for RF, Dioxane/Water/Hydrochloric acid (conc.), mobile phase II: II = 80%Dioxane/15%H2O/5%HCl; for RF, Methanol/Water/Hydrochloric acid (conc.), mobile phase II: II = 85%MeOH/10%H2O/5%HCl; for RF, Acetone/Water/Hydrochloric acid (conc.), mobile phase III: III = 70%AC/25%H2O/5%HCl; for RF, Dioxane/Water/Hydrochloric acid (conc.), mobile phase III: III = 70%Dioxane/25%H2O/5%HCl; for RF, Methanol/Water/Hydrochloric acid (conc.), mobile phase III: III = 80%MeOH/15%H2O/5%HCl; for RF, Dioxane/Water/Hydrochloric acid (conc.), mobile phase IV: IV = 60%Dioxane/35%H2O/5%HCl; for RF, Acetone/Water/Hydrochloric acid (conc.), mobile phase IV: IV = 65%AC/30%H2O/5%HCl; for RF, Methanol/Water/Hydrochloric acid (conc.), mobile phase IV: IV = 75%MeOH/20%H2O/5%HCl; for RF, Acetone/Water/Hydrochloric acid (conc.), mobile phase IX: IX = 40%AC/55%H2O/5%HCl; for RF, Methanol/Water/Hydrochloric acid (conc.), mobile phase IX: IX = 50%MeOH/45%H2O/5%HCl; for RF, Dioxane/Water/Hydrochloric acid (conc.), mobile phase V: V = 50%Dioxane/45%H2O/5%HCl; for RF, Acetone/Water/Hydrochloric acid (conc.), mobile phase V: V = 60%AC/35%H2O/5%HCl; for RF, Methanol/Water/Hydrochloric acid (conc.), mobile phase V: V = 70%MeOH/25%H2O/5%HCl; for RF, Dioxane/Water/Hydrochloric acid (conc.), mobile phase VI: VI = 40%Dioxane/55%H2O/5%HCl; for RF, Acetone/Water/Hydrochloric acid (conc.), mobile phase VI: VI = 55%AC/40%H2O/5%HCl; for RF, Methanol/Water/Hydrochloric acid (conc.), mobile phase VI: VI = 65%MeOH/30%H2O/5%HCl; for RF, Acetone/Water/Hydrochloric acid (conc.), mobile phase VII: VII = 50%AC/45%H2O/5%HCl; for RF, Methanol/Water/Hydrochloric acid (conc.), mobile phase VII: VII = 60%MeOH/35%H2O/5%HCl; for RF, Acetone/Water/Hydrochloric acid (conc.), mobile phase VIII: VIII = 45%AC/50%H2O/5%HCl; for RF, Methanol/Water/Hydrochloric acid (conc.), mobile phase VIII: VIII = 55%MeOH/40%H2O/5%HCl
Procedure, shortened: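 Lipophilicity from RP-TLC retention at 22±2 °C over a 4.5 cm development distance. Eluents: organic modifier (methanol, acetone or dioxane), water and hydrochloric acid, methanol stepped by 10%. RM0 obtained from RF.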

[4] = Ferric reducing antioxidant power (FRAP) assay; conditions: mean ± standard error of three experiments;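 note: expressed as µM Fe2+ equivalents from an FeSO4·7H2O standard curve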
Procedure, shortened: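 Ferric-TPTZ reduction measured by absorbance at 593 nm after 60 min at 37 °C in pH 3.6 acetate-buffered TPTZ/FeCl3 reagent, with test compounds at 10 and 100 µM. FRAP values calculated from an Fe2SO4·7H2O standard curve. Data from three independent experiments.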

[5] = standard compounds of the interpolation method; cited from earlier work
[6] = logarithm of Ki in µM, BChE, dependent variable of the QSAR model, read-out: Y Measured 2 log(ki)Bche, log (Ki/µM BChE) (converted)
[7] = ± standard error, 25 °C, ATCh substrate, read-out: Ki BChE
[8] = log (Ki/µM AChE), read-out: Y Measured 1 log(ki)Ache (converted)
[9] = ± standard error, 25 °C, ATCh substrate, read-out: Ki AChE
[10] = Acetone/Water/Hydrochloric acid (conc.)
[11] = Dioxane/Water/Hydrochloric acid (conc.)
[12] = Methanol/Water/Hydrochloric acid (conc.)

T2 sequence (P22303 32-614): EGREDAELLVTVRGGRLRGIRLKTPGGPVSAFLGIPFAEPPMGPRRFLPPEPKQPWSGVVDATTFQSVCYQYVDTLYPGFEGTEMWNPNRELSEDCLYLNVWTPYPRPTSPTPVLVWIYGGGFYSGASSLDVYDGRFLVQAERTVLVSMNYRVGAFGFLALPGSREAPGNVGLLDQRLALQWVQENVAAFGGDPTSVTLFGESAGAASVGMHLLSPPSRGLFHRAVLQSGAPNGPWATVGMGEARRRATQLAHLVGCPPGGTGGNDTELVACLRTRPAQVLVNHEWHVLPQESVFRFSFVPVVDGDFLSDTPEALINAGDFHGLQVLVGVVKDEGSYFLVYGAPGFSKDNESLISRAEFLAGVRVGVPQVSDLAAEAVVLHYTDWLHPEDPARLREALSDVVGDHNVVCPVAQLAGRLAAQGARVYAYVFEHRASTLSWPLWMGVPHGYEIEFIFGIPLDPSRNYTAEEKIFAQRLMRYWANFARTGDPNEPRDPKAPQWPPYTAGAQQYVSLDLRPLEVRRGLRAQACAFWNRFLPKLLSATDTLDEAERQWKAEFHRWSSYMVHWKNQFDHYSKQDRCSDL
T1 sequence (P06276 29-602): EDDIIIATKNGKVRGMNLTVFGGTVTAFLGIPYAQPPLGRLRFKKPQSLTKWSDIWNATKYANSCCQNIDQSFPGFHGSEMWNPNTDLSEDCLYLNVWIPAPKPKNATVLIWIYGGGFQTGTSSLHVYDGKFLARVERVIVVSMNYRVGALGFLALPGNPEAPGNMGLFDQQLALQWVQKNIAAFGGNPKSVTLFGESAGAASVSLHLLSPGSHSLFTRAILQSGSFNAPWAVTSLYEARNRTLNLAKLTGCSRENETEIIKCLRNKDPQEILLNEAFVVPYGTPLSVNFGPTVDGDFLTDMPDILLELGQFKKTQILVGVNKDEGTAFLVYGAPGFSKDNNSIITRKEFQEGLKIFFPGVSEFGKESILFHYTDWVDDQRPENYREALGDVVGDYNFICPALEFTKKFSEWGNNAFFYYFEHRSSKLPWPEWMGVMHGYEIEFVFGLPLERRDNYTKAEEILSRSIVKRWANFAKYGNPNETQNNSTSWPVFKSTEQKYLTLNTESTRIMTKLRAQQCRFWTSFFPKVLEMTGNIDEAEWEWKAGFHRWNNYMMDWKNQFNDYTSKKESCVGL

| SMILES | Ki [1, 7] [µM] | IS [2] | Ki [2, 9] [µM] | RM0 [3, 10] | b [3, 10] | RM0 [3, 11] | b [3, 11] | RM0 [3, 12] | b [3, 12] | RF, Methanol/Water/Hydrochloric acid (conc.), mobile phase I ([3]; RP-18 silica) | RF, Dioxane/Water/Hydrochloric acid (conc.), mobile phase II ([3]; RP-18 silica) | RF, Methanol/Water/Hydrochloric acid (conc.), mobile phase II ([3]; RP-18 silica) | RF, Acetone/Water/Hydrochloric acid (conc.), mobile phase III ([3]; RP-18 silica) | RF, Dioxane/Water/Hydrochloric acid (conc.), mobile phase III ([3]; RP-18 silica) | RF, Methanol/Water/Hydrochloric acid (conc.), mobile phase III ([3]; RP-18 silica) | RF, Dioxane/Water/Hydrochloric acid (conc.), mobile phase IV ([3]; RP-18 silica) | RF, Acetone/Water/Hydrochloric acid (conc.), mobile phase IV ([3]; RP-18 silica) | RF, Methanol/Water/Hydrochloric acid (conc.), mobile phase IV ([3]; RP-18 silica) | RF, Acetone/Water/Hydrochloric acid (conc.), mobile phase IX ([3]; RP-18 silica) | RF, Methanol/Water/Hydrochloric acid (conc.), mobile phase IX ([3]; RP-18 silica) | other results |
| --- | --- | --- | --- | --- | --- | --- | --- | --- | --- | --- | --- | --- | --- | --- | --- | --- | --- | --- | --- | --- | --- |
| Clc1ccc2c(NCCN(CCC34CC5CC(CC(C5)C3)C4)CCC34CC5CC(CC(C5)C3)C4)ccnc2c1 [Compound 9] | 1.5 ± 0.2 | 0.3 | 5.2 ± 0.2 | 3.559 | 4.683 | 2.268 | 3.179 | 5.446 | 5.91 | 0.44 | 0.65 | 0.31 | 0.33 | 0.55 | 0.11 | 0.42 | 0.28 | 0.1 | 0 | 0 | Ki [1, 6]: 1.5 µM; Ki [2, 8]: 5.2 µM; RF, Acetone/Water/Hydrochloric acid (conc.), mobile phase I ([3]; RP-18 silica, I = 80%AC/15%H2O/5%HCl): 0.58; RF, Dioxane/Water/Hydrochloric acid (conc.), mobile phase I ([3]; RP-18 silica, I = 90%Dioxane/5%H2O/5%HCl): 0.75; RF, Acetone/Water/Hydrochloric acid (conc.), mobile phase II ([3]; RP-18 silica, II = 75%AC/20%H2O/5%HCl): 0.5; RF, Dioxane/Water/Hydrochloric acid (conc.), mobile phase V ([3]; RP-18 silica): 0.11; RF, Acetone/Water/Hydrochloric acid (conc.), mobile phase V ([3]; RP-18 silica): 0.13; RF, Methanol/Water/Hydrochloric acid (conc.), mobile phase V ([3]; RP-18 silica): 0.05; RF, Dioxane/Water/Hydrochloric acid (conc.), mobile phase VI ([3]; RP-18 silica): 0; RF, Acetone/Water/Hydrochloric acid (conc.), mobile phase VI ([3]; RP-18 silica): 0.09; RF, Methanol/Water/Hydrochloric acid (conc.), mobile phase VI ([3]; RP-18 silica): 0.01; RF, Acetone/Water/Hydrochloric acid (conc.), mobile phase VII ([3]; RP-18 silica): 0; RF, Methanol/Water/Hydrochloric acid (conc.), mobile phase VII ([3]; RP-18 silica): 0; RF, Acetone/Water/Hydrochloric acid (conc.), mobile phase VIII ([3]; RP-18 silica): 0; RF, Methanol/Water/Hydrochloric acid (conc.), mobile phase VIII ([3]; RP-18 silica): 0; FRAP ([4]; 10 µM compound): 3.4 ± 0.0 µM; FRAP ([4]; 100 µM compound): 29 ± 6 µM |
| CC(CCNCC12CC3CC(CC(C3)C1)C2)Nc1ccnc2ccccc12 (stereo not drawn) [Compound 15] | 0.65 ± 0.04 | 0.9 | 0.74 ± 0.03 | 1.742 | 2.801 | 0.8903 | 1.797 | 2.31 | 3.062 | 0.71 | 0.74 | 0.67 | 0.6 | 0.7 | 0.54 | 0.7 | 0.55 | 0.51 | 0.15 | 0.11 | RF, Dioxane/Water/Hydrochloric acid (conc.), mobile phase V ([3]; RP-18 silica): 0.51; RF, Acetone/Water/Hydrochloric acid (conc.), mobile phase V ([3]; RP-18 silica): 0.45; RF, Methanol/Water/Hydrochloric acid (conc.), mobile phase V ([3]; RP-18 silica): 0.45; RF, Dioxane/Water/Hydrochloric acid (conc.), mobile phase VI ([3]; RP-18 silica): 0.35; RF, Acetone/Water/Hydrochloric acid (conc.), mobile phase VI ([3]; RP-18 silica): 0.4; RF, Methanol/Water/Hydrochloric acid (conc.), mobile phase VI ([3]; RP-18 silica): 0.36; RF, Acetone/Water/Hydrochloric acid (conc.), mobile phase VII ([3]; RP-18 silica): 0.35; RF, Methanol/Water/Hydrochloric acid (conc.), mobile phase VII ([3]; RP-18 silica): 0.27; RF, Acetone/Water/Hydrochloric acid (conc.), mobile phase VIII ([3]; RP-18 silica): 0.29; RF, Methanol/Water/Hydrochloric acid (conc.), mobile phase VIII ([3]; RP-18 silica): 0.2; FRAP ([4]; 10 µM compound): 9.3 ± 2.2 µM; FRAP ([4]; 100 µM compound): 224 ± 21 µM |
| Clc1ccc2c(N3CCN(CC45CC6CC(CC(C6)C4)C5)CC3)ccnc2c1 [Compound 20] | 25 ± 1 | 2.7 | 9.4 ± 0.4 | 1.432 | 2.592 | 0.3825 | 1.224 | 1.5449 | 2.158 | 0.67 | 0.75 | 0.7 | 0.69 | 0.76 | 0.58 | 0.78 | 0.65 | 0.56 | 0.28 | 0.22 | decrease in BChE inhibition vs compound 5 [1]: up to 275 times; Ki [1, 6]: 25.1 µM; Ki [2, 8]: 9.4 µM; RF, Dioxane/Water/Hydrochloric acid (conc.), mobile phase V ([3]; RP-18 silica): 0.63; RF, Acetone/Water/Hydrochloric acid (conc.), mobile phase V ([3]; RP-18 silica): 0.58; RF, Methanol/Water/Hydrochloric acid (conc.), mobile phase V ([3]; RP-18 silica): 0.48; RF, Dioxane/Water/Hydrochloric acid (conc.), mobile phase VI ([3]; RP-18 silica): 0.5; RF, Acetone/Water/Hydrochloric acid (conc.), mobile phase VI ([3]; RP-18 silica): 0.51; RF, Methanol/Water/Hydrochloric acid (conc.), mobile phase VI ([3]; RP-18 silica): 0.45; RF, Acetone/Water/Hydrochloric acid (conc.), mobile phase VII ([3]; RP-18 silica): 0.42; RF, Methanol/Water/Hydrochloric acid (conc.), mobile phase VII ([3]; RP-18 silica): 0.38; RF, Acetone/Water/Hydrochloric acid (conc.), mobile phase VIII ([3]; RP-18 silica): 0.35; RF, Methanol/Water/Hydrochloric acid (conc.), mobile phase VIII ([3]; RP-18 silica): 0.31; FRAP ([4]; 10 µM compound): 2.9 ± 1.1 µM; FRAP ([4]; 100 µM compound): 6.3 ± 1.6 µM |
| c1ccc2cc3ccccc3cc2c1 [antracen] | – | – | – | – | – | – | – | – | – | – | – | – | – | – | – | – | – | – | – | – | logP [5]: 4.45 |
| O=C1CN=C(c2ccccc2Cl)c2cc([N+](=O)[O-])ccc2N1 [klonazepam] | – | – | – | – | – | – | – | – | – | – | – | – | – | – | – | – | – | – | – | – | logP [5]: 2.41; pKa1 [5]: 10.5; pKa2 [5]: 1.5 |
